The text below walks through data of patent US12371428B2 (Exelixis, Inc., priority 2019, dated 2025).

A value given as a limit tells only on which side of the number the result lay.

The target of test [1] is Met (phospho-Met, HGF-stimulated PC-3 prostate cancer cells) (Homo sapiens (Human), UniProt P08581). As to the kind of experiment: Met autophosphorylation ELISA in PC-3 cells (Example F). The following applies: cellular activity; Met autophosphorylation ELISA in PC-3 cells; read-out: c-Met IC50. The format is cell-based. Summed up: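 Compounds were tested on HGF-stimulated PC-3 cells. After 24 h culture and 3 h serum starvation, cells got compound for 1 h and 100 ng/mL HGF for 10 min, and Met tyrosine phosphorylation was measured by ELISA.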

In test [2] the target is Mer (phospho-Mer, MERTK-transfected 293A cells) (Homo sapiens (Human), UniProt Q12866). The experiment in a line: Mer autophosphorylation ELISA in transient transfected 293A cells (Example H). The format is cell-based. The following applies: cellular activity; Mer autophosphorylation ELISA in transient transfected 293A cells. Summed up: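 MERTK-transfected 293A; 8-pt dose, 1 h, serum-free, 0.3% DMSO. Cold lysis with orthovanadate and protease/phosphatase inhibitors. Phospho-Mer by DuoSet IC ELISA vs phospho-Mer standard. IC50: 4-PL fit; DMSO = 100%, reference inhibitor = 0%.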
Background: An ELISA detects its analyte on a solid surface through an enzyme-linked reagent.

Test [3] deals with Human KDR (residues 790-1356) (Homo sapiens (Human), UniProt P35968). As to the kind of experiment: Human KDR kinase assay, HTRF KinEase (Example B-2). The format is biochemical. The following applies: protocol of Example B-2 (other compounds). Summed up: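 Ten compound concentrations (3% DMSO final) were pre-plated, then KDR (790-1356) with biotinylated peptide in Mg/Mn/DTT buffer was added; ATP at Km (4.0 μM) started a 40 min room-temperature reaction. Detection used Eu-TK antibody and SA-XL665 in EDTA buffer; activity normalized to DMSO and reference inhibitor, IC50 by logistic fit.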

For test [4], the target named is Human MET (residues 956-1390) (Homo sapiens (Human), UniProt P08581). As to the kind of experiment: Human Met kinase assay, HTRF KinEase (Example D-2). The format is biochemical. The following applies: protocol of Example D-2 (other compounds); read-out: c-Met IC50. Summed up: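 HTRF KinEase assay on MET residues 956-1390 (0.1 ng/well) in buffer with 5 mM MgCl2, 1 mM DTT and 1 mM MnCl2, with biotinylated peptide substrate, ATP at Km, 10 compound concentrations and 3% DMSO final, run 40 min at room temperature. The […] signal was normalized to DMSO and to 1 μM reference compound, and IC50 came from a 4-parameter logistic fit.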
(In general: In TR-FRET formats the signal depends on donor and acceptor labels being close together.)

Chain of Human KDR (residues 790-1356) (P35968 790-1356): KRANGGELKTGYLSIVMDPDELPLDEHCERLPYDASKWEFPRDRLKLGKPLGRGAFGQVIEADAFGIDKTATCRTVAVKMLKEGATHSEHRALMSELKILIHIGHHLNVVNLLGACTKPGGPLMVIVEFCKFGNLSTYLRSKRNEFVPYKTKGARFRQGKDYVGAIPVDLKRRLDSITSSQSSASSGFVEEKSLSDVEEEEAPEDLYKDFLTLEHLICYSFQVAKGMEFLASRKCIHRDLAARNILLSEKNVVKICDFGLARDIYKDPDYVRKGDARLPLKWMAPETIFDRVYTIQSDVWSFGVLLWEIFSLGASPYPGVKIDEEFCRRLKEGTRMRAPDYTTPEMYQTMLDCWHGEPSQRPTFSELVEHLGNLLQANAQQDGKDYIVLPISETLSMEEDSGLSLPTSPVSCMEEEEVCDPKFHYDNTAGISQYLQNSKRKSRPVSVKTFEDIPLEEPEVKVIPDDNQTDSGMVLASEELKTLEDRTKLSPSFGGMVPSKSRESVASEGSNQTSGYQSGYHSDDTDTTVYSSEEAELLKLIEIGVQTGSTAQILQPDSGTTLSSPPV
Chain of Met (phospho-Met, HGF-stimulated PC-3 prostate cancer cells) (P08581 25-1390): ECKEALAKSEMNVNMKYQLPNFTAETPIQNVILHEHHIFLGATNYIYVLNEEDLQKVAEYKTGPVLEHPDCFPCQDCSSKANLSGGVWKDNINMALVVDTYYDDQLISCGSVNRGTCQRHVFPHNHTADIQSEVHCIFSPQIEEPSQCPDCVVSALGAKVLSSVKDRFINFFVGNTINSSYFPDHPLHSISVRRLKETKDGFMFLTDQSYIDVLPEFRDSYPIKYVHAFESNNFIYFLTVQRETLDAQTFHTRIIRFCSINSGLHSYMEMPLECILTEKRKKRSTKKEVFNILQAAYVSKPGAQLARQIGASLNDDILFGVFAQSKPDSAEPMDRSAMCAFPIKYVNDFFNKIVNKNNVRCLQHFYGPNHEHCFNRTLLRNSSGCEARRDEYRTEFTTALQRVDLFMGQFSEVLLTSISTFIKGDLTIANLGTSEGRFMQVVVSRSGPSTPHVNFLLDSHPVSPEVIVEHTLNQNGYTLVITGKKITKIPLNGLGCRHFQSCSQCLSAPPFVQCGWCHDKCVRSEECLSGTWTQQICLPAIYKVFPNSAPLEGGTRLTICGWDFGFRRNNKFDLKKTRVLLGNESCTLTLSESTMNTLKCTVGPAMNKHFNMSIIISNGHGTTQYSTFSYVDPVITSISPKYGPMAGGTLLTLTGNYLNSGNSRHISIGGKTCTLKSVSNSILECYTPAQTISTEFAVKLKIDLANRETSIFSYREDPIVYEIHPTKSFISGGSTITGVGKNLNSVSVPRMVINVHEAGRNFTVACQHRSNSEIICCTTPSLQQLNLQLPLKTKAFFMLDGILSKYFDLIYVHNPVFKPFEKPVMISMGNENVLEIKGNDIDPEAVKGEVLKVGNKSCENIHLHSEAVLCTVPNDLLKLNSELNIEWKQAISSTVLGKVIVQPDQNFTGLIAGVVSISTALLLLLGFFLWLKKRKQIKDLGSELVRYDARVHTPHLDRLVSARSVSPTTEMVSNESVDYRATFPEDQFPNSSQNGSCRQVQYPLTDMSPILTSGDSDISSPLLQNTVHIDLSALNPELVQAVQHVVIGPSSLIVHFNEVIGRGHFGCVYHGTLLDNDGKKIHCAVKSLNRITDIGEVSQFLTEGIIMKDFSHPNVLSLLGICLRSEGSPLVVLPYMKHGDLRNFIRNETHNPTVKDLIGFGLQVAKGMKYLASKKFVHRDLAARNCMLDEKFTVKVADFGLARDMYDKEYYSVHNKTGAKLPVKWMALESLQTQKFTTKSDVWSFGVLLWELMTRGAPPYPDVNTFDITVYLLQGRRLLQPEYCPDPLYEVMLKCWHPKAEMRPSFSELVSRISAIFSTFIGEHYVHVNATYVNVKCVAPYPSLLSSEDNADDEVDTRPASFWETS
Chain of Mer (phospho-Mer, MERTK-transfected 293A cells) (Q12866 21-999): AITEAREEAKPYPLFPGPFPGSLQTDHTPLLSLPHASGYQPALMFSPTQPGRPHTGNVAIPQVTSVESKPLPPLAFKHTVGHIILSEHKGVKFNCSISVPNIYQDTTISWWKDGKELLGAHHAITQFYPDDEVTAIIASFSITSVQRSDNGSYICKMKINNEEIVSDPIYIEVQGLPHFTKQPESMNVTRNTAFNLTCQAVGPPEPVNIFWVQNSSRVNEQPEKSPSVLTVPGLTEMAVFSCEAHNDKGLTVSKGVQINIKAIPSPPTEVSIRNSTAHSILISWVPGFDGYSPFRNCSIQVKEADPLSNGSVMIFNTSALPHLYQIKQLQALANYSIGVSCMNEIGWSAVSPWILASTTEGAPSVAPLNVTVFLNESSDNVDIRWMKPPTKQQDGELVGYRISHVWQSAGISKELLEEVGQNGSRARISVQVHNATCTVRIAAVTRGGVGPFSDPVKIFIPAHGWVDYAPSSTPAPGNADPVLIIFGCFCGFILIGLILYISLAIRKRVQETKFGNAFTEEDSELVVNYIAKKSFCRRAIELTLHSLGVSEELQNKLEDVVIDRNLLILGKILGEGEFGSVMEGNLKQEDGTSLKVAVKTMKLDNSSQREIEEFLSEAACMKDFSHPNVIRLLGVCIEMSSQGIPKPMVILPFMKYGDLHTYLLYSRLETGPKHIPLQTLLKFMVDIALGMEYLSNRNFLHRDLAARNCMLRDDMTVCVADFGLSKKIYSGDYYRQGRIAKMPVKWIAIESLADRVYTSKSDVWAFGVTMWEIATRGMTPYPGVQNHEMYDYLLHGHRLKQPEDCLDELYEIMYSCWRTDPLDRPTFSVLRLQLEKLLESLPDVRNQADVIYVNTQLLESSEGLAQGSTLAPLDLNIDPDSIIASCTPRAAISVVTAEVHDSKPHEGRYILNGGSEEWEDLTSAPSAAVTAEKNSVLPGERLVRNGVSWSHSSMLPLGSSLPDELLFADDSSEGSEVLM
Chain of Human MET (residues 956-1390) (P08581 956-1390): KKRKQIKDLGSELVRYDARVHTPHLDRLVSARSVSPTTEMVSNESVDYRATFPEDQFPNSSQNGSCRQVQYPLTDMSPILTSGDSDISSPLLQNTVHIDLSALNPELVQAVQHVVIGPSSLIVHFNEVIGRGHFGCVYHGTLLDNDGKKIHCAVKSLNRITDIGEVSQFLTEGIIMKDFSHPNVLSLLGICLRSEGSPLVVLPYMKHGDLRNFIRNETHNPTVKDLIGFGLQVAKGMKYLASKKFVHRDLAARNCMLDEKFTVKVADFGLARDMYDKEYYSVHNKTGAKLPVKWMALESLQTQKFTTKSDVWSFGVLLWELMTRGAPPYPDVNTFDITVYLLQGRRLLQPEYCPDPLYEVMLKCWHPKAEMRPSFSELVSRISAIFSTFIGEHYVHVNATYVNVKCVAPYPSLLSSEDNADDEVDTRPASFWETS

One may read the IC50 as the concentration that inhibits the measured activity by half. Regarding `COc1cc2nccc(Oc3ccc(NC(=O)c4cn(C(C)(C)C)cc(-c5ccc(F)cc5)c4=O)cc3F)c2nc1OC` [Compound 48, 1-tert-Butyl-N-[4-[(6,7-dimethoxy-1,5-naphthyridin-4-yl)oxy]-3-fluorophenyl]-5-(4-fluorophenyl)-4-oxopyridine-3-carboxamide], the IC50 in test [1] was under 100 nM; in test [2], under 100 nM; in test [3], over 300 nM; in test [4] it was under 100 nM.
Consider `COc1cc2nccc(Oc3ccc(NC(=O)c4cn(-c5ccn(C)n5)cc(-c5ccc(F)cc5)c4=O)cc3F)c2nc1OC` [Compound 53, N-[4-[(6,7-Dimethoxy-1,5-naphthyridin-4-yl)oxy]-3-fluorophenyl]-5-(4-fluorophenyl)-1-(1-methylpyrazol-3-yl)-4-oxopyridine-3-carboxamide], for which the half-inhibitory concentration (IC50) in test [1] was under 100 nM; in test [2], under 100 nM; in test [3], over 300 nM; in test [4], under 100 nM.
For the compound `COc1cc2nccc(Oc3ccc(NC(=O)c4cn(C)c(C)c(-c5ccc(F)cc5)c4=O)cc3F)c2nc1OC` [Compound 58, N-[4-[(6,7-Dimethoxy-1,5-naphthyridin-4-yl)oxy]-3-fluorophenyl]-5-(4-fluorophenyl)-1,6-dimethyl-4-oxopyridine-3-carboxamide], the IC50 in test [1], in test [2], in test [3] and in test [4] was under 100 nM each time.
Turning to `COc1cc2nccc(Oc3ccc(NC(=O)c4cn(C5(C(F)(F)F)CC5)cc(-c5ccc(F)cc5)c4=O)cc3F)c2nc1OC` [Compound 59, N-[4-[(6,7-Dimethoxy-1,5-naphthyridin-4-yl)oxy]-3-fluorophenyl]-5-(4-fluorophenyl)-4-oxo-1-[1-(trifluoromethyl)cyclopropyl]pyridine-3-carboxamide], the IC50 in test [1] is under 100 nM; in test [2], under 100 nM; in test [3] it was 100 to 300 nM; in test [4] it was under 100 nM.
`COc1cc2nccc(Oc3ccc(NC(=O)c4cn(-c5cnn(C(F)F)c5)cc(-c5ccc(F)cc5)c4=O)cc3F)c2nc1OC` [Compound 60, 1-[1-(Difluoromethyl)pyrazol-4-yl]-N-[4-[(6,7-dimethoxy-1,5-naphthyridin-4-yl)oxy]-3-fluorophenyl]-5-(4-fluorophenyl)-4-oxopyridine-3-carboxamide]: the IC50 in test [1] was under 100 nM; in test [2], under 100 nM; in test [3], over 300 nM; in test [4], under 100 nM.
`COc1cc2nccc(Oc3ccc(NC(=O)c4cn(-c5cc[nH]n5)cc(-c5ccc(F)cc5)c4=O)cc3F)c2nc1OC` [Compound 61, N-[4-[(6,7-Dimethoxy-1,5-naphthyridin-4-yl)oxy]-3-fluorophenyl]-5-(4-fluorophenyl)-4-oxo-1-(1H-pyrazol-3-yl)pyridine-3-carboxamide]: the IC50 in test [1] is under 100 nM; in test [2], under 100 nM; in test [3], over 300 nM; in test [4], under 100 nM.
Turning to `COc1cc2nccc(Oc3ccc(NC(=O)c4cn(-c5cn[nH]c5)cc(-c5ccc(F)cc5)c4=O)cc3F)c2nc1OC` [Compound 62, N-[4-[(6,7-Dimethoxy-1,5-naphthyridin-4-yl)oxy]-3-fluorophenyl]-5-(4-fluorophenyl)-4-oxo-1-(1H-pyrazol-4-yl)pyridine-3-carboxamide], the 50% inhibitory concentration (IC50) was under 100 nM in test [1], under 100 nM in test [2], over 300 nM in test [3] and under 100 nM in test [4].
`CCn1cc(C(=O)Nc2ccc(Oc3ccnc4cc(OC)c(OC)nc34)c(F)c2)c(=O)c(-c2ccc(F)cc2)c1C` [Compound 63, N-[4-[(6,7-Dimethoxy-1,5-naphthyridin-4-yl)oxy]-3-fluorophenyl]-1-ethyl-5-(4-fluorophenyl)-6-methyl-4-oxopyridine-3-carboxamide]: the IC50 in test [1], in test [2], in test [3] and in test [4] was under 100 nM throughout.
In the case of `COc1cnc2c(Oc3ccc(NC(=O)c4cnc(C)c(-c5ccc(F)cc5)c4O)cc3F)ccnc2c1` [Compound 64, N-[3-Fluoro-4-[(7-methoxy-1,5-naphthyridin-4-yl)oxy]phenyl]-5-(4-fluorophenyl)-4-hydroxy-6-methylpyridine-3-carboxamide], the concentration for half-maximal inhibition (IC50) in test [1], in test [2], in test [3] and in test [4] was under 100 nM throughout.
Take `COc1cc2nccc(Oc3ccc(NC(=O)c4cn(C)c(C)c(-c5ccc(F)cc5)c4=O)cc3)c2nc1OC` [Compound 65, N-[4-[(6,7-Dimethoxy-1,5-naphthyridin-4-yl)oxy]phenyl]-5-(4-fluorophenyl)-1,6-dimethyl-4-oxopyridine-3-carboxamide]: the half-inhibitory concentration (IC50) in test [1], in test [2], in test [3] and in test [4] was under 100 nM each time.
In the case of `COc1cnc2c(Oc3ccc(NC(=O)c4c(C)nc(C)c(-c5ccc(F)cc5)c4O)cc3F)ccnc2c1` [Compound 66, N-[3-Fluoro-4-[(7-methoxy-1,5-naphthyridin-4-yl)oxy]phenyl]-5-(4-fluorophenyl)-4-hydroxy-2,6-dimethylpyridine-3-carboxamide], the concentration for half-maximal inhibition (IC50) in test [1], in test [2], in test [3] and in test [4] was under 100 nM in each case.
As to `COc1ccc2nccc(Oc3ccc(NC(=O)c4c(C)nc(C)c(-c5ccc(F)cc5)c4O)cc3F)c2n1` [Compound 67, N-[3-Fluoro-4-[(6-methoxy-1,5-naphthyridin-4-yl)oxy]phenyl]-5-(4-fluorophenyl)-4-hydroxy-2,6-dimethylpyridine-3-carboxamide], the IC50 in test [1], in test [2], in test [3] and in test [4] was under 100 nM in each case.
In the case of `COCCOc1nc2c(Oc3ccc(NC(=O)c4cnc(C)c(-c5ccc(F)cc5)c4O)cc3F)ccnc2cc1OC` [Compound 68, N-[3-Fluoro-4-[[7-methoxy-6-(2-methoxyethoxy)-1,5-naphthyridin-4-yl]oxy]phenyl]-5-(4-fluorophenyl)-4-hydroxy-6-methylpyridine-3-carboxamide], the half-maximal inhibitory concentration (IC50) in test [1], in test [2], in test [3] and in test [4] was under 100 nM each time.
For the compound `COc1cc2nccc(Oc3ccc(NC(=O)c4cnc(C)c(-c5ccc(F)cc5C)c4O)cc3F)c2nc1OC` [Compound 69, N-[4-[(6,7-Dimethoxy-1,5-naphthyridin-4-yl)oxy]-3-fluorophenyl]-5-(4-fluoro-2-methylphenyl)-4-hydroxy-6-methylpyridine-3-carboxamide], the 50% inhibitory concentration (IC50) in test [1], in test [2], in test [3] and in test [4] was under 100 nM throughout.
For `COc1ccc2nccc(Oc3ccc(NC(=O)c4c(C)nc(C)c(-c5ccc(F)cc5C)c4O)cc3F)c2n1` [Compound 70, N-[3-Fluoro-4-[(6-methoxy-1,5-naphthyridin-4-yl)oxy]phenyl]-5-(4-fluoro-2-methylphenyl)-4-hydroxy-2,6-dimethylpyridine-3-carboxamide], the IC50 is under 100 nM in test [1], under 100 nM in test [2], 100 to 300 nM in test [3] and under 100 nM in test [4].
Regarding `COc1cc2nccc(Oc3ccc(NC(=O)c4cnc(CO)c(-c5ccc(F)cc5)c4O)cc3F)c2nc1OC` [Compound 71, N-[4-[(6,7-Dimethoxy-1,5-naphthyridin-4-yl)oxy]-3-fluorophenyl]-5-(4-fluorophenyl)-4-hydroxy-6-(hydroxymethyl)pyridine-3-carboxamide], the 50% inhibitory concentration (IC50) in test [1], in test [2], in test [3] and in test [4] was under 100 nM throughout.
As to `COc1cc2nccc(Oc3ccc(NC(=O)c4cn(C)c(CO)c(-c5ccc(F)cc5)c4=O)cc3F)c2nc1OC` [Compound 72, N-[4-[(6,7-Dimethoxy-1,5-naphthyridin-4-yl)oxy]-3-fluorophenyl]-5-(4-fluorophenyl)-6-(hydroxymethyl)-1-methyl-4-oxopyridine-3-carboxamide], the half-maximal inhibitory concentration (IC50) in test [1] was under 100 nM; in test [2], under 100 nM; in test [3] it was 100 to 300 nM; in test [4], under 100 nM.
In the case of `COc1cc2nccc(Oc3ccc(NC(=O)c4cn(C)c(CF)c(-c5ccc(F)cc5)c4=O)cc3F)c2nc1OC` [Compound 73, N-[4-[(6,7-Dimethoxy-1,5-naphthyridin-4-yl)oxy]-3-fluorophenyl]-6-(fluoromethyl)-5-(4-fluorophenyl)-1-methyl-4-oxopyridine-3-carboxamide], the 50% inhibitory concentration (IC50) in test [1] is under 100 nM; in test [2] it was under 100 nM; in test [3], 100 to 300 nM; in test [4], under 100 nM.
